Measurements as given in PubChem BioAssay (NCI).
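In this assay, cells in 96-well plates receive the compound at five concentrations for 48 hours. Endpoints are linearly interpolated between the surrounding concentrations. GI50 marks 50% less growth. TGI: concentration producing complete growth inhibition.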

Legend:
Assay in all cases: NCI anticancer screen, dose series, 48 h
DMS 114 small cell lung = system: DMS 114 small cell lung
M19-MEL melanoma = system: M19-MEL melanoma
RXF-631 renal = system: RXF-631 renal
HOP-18 NSCLC = system: HOP-18 NSCLC
DLD-1 colon = system: DLD-1 colon
MDA-MB-231 breast = system: MDA-MB-231 breast
DMS 273 small cell lung = system: DMS 273 small cell lung
BT-549 breast = system: BT-549 breast
MDA-N = system: MDA-N

Row | Structure (SMILES) | TGI (DMS 114 small cell lung) | TGI (M19-MEL melanoma) | TGI (DLD-1 colon) | GI50 (MDA-MB-231 breast) | TGI (MDA-MB-231 breast) | TGI (DMS 273 small cell lung) | GI50 (BT-549 breast) | TGI (BT-549 breast) | further results
1 | CCCCCCCCCCCCC(=O)[O-].CCCCCCCCCCCCC(=O)[O-].CCCCCCCCCCCCC(=O)[O-].CCCCCCCCCCCCC(=O)[O-].[Mo+2].[Mo+2] | 26 µM | > 100 µM | 23.3 µM | – | – | – | – | – | GI50 (DMS 114 small cell lung): 6.62 µM; GI50 (M19-MEL melanoma): 18.7 µM; GI50 (RXF-631 renal): 0.403 µM; TGI (RXF-631 renal): 2.06 µM; GI50 (HOP-18 NSCLC): 20.6 µM; TGI (HOP-18 NSCLC): 34.9 µM; GI50 (DLD-1 colon): 7.9 µM
2 | S=c1ssc(Sc2ccccn2)c1Cl | – | – | – | 12 µM | 24.4 µM | – | – | – | –
3 | O=C(O)c1c[nH]cc1C(=O)O | > 100 µM | > 100 µM | > 100 µM | – | – | > 100 µM | – | – | –
4 | COc1cc(Oc2c(O)c(C)c(OC)c(C(C)=O)c2O)c(C(C)=O)c(O)c1C | > 100 µM | > 100 µM | > 100 µM | – | – | > 100 µM | – | – | TGI (RXF-631 renal): > 100 µM
5 | CCN1C(=O)N(CC)C2C1NN=c1s/c(=C3\C(=O)N(C)c4ccccc43)c(=O)n12 (stereo not given) | – | – | – | 1.99 µM | 34.6 µM | – | 1.39 µM | 37.9 µM | –
6 | C=C(C)[C@@H]1CC[C@@]2(C)[C@H]1[C@H]1CCC3[C@@]4(C)CC[C@H](O)C(C)(C)[C@@H]4CC[C@@]3(C)[C@]1(C)C[C@@H]2O (stereo not given in full) | – | – | – | – | > 100 µM | – | – | > 100 µM | TGI (MDA-N): > 100 µM
7 | Cn1cc(-c2ccc(CNc3cc(-c4cnc5cc(OCCCN6CCCC6)ccn45)ncn3)cc2)cn1 | – | – | – | 1.91 µM | 3.56 µM | – | 12.6 µM | 27.2 µM | –
8 | C/C(=N\NC(N)=O)C(CN(C)C)C(c1ccccc1)c1c(O)c2ccccc2oc1=O (stereo not given) | – | – | – | – | > 100 µM | – | – | > 100 µM | TGI (MDA-N): > 100 µM
9 | CC(=O)NC(CCCN(Cc1ccccc1)C(=O)N(CCCl)N=O)C(=O)NCc1ccccc1 (stereo not given) | > 100 µM | – | > 100 µM | – | – | > 100 µM | – | – | TGI (HOP-18 NSCLC): > 100 µM
10 | CC1CC2(CC[C@@H]1O)OCCO2 (stereo not given in full) | – | > 100 µM | > 100 µM | – | – | > 100 µM | – | – | TGI (RXF-631 renal): > 100 µM
11 | CCOC(=O)N1CCN(S(=O)(=O)c2oc(-c3ccc(Cl)cc3)nc2C#N)CC1 | – | – | – | 1.94 µM | 4.24 µM | – | 2.22 µM | 5.6 µM | –
12 | C/C=C(/CCCCNCCCC)[Si](C)(C)C | 33.5 µM | 33 µM | 29.8 µM | – | – | 38.2 µM | – | – | TGI (RXF-631 renal): 31.3 µM
13 | O=C(Cc1ccccc1)N/N=C(\C1=Nc2ccc([N+](=O)[O-])cc2NC1O)C(O)c1ccc([N+](=O)[O-])cc1 (stereo not given) | – | > 100 µM | > 100 µM | – | – | – | – | – | TGI (RXF-631 renal): > 100 µM; TGI (HOP-18 NSCLC): > 100 µM
14 | CCOc1ccc(NC(=O)CC2SC(N)=NC2=O)cc1 (stereo not given) | > 100 µM | > 100 µM | > 100 µM | – | – | – | – | – | –
15 | C=C(N=[N+]=[N-])c1cn(C2CC(O)C(CO)O2)c(=O)[nH]c1=O (stereo not given) | > 100 µM | > 100 µM | > 100 µM | – | – | > 100 µM | – | – | TGI (HOP-18 NSCLC): > 100 µM
16 | Cc1c2ccncc2c(C)c2c1[nH]c1ccc(OC(C)(C)C)cc12 | 4.29 µM | 5.54 µM | 10.4 µM | – | – | 4.36 µM | – | – | TGI (RXF-631 renal): 6.58 µM
17 | COC(=O)[C@]1(C)CCC[C@@]2(C)C1CCC1=C[C@@]3(C(C)C)CC[C@]12OO3 (stereo not given in full) | – | 65.7 µM | 71.5 µM | – | – | 87.2 µM | – | – | TGI (RXF-631 renal): 63.8 µM

Row | Structure (SMILES) | TGI (DMS 114 small cell lung) | TGI (M19-MEL melanoma) | TGI (DLD-1 colon) | GI50 (MDA-MB-231 breast) | TGI (MDA-MB-231 breast) | TGI (DMS 273 small cell lung) | GI50 (BT-549 breast) | TGI (BT-549 breast) | further results
18 | C=CCc1ccc(O)c(-c2cc(C3Oc4c(-c5cc(CC=C)ccc5O)cc(O)cc4[C@@H]3CO)ccc2O)c1 (stereo not given in full) | 28.1 µM | > 100 µM | 38.6 µM | – | – | 44.5 µM | – | – | TGI (HOP-18 NSCLC): > 100 µM
19 | CN(C)c1ccc(N=Nc2c([O-])ccc3ccccc23)cc1.[C-]#[O+].[C-]#[O+].[Ir] | 36 µM | 50.2 µM | 47.8 µM | 18.8 µM | 36.2 µM | – | 19.6 µM | 56.7 µM | GI50 (DMS 114 small cell lung): 20.6 µM; GI50 (M19-MEL melanoma): 20.3 µM; GI50 (HOP-18 NSCLC): 17.2 µM; TGI (HOP-18 NSCLC): 37.2 µM; GI50 (DLD-1 colon): 22.5 µM
20 | Nc1nc(OCc2ccccc2)nc2[nH]ncc12 | – | – | – | 11.4 µM | 25.6 µM | – | 23.2 µM | 54.8 µM | –
21 | CC(C)[C@@H](COC(C)(C)C)N=CN1CCc2c([nH]c3ccccc23)C1 | > 100 µM | – | > 100 µM | – | – | > 100 µM | – | – | –
22 | COc1ccccc1-c1c(C)nn2c(NCc3ccccn3)cc(C)nc12 | – | – | – | 34.7 µM | > 50 µM | – | > 37.3 µM | > 50 µM | –
23 | O=C(Nc1cc(Cl)c(Cl)cc1Cl)C(=O)C(C(=O)c1ccc(Cl)c(Cl)c1)C1OC(=O)c2ccccc21 (stereo not given) | 39.5 µM | 37.9 µM | 23.4 µM | – | – | 44.5 µM | – | – | –
24 | Cc1cc(N2CCCC2)nc(N(CCCNc2ccnc3cc(Cl)ccc23)Cc2ccc3c(c2)OCO3)n1 | – | – | – | 0.681 µM | 3.42 µM | – | – | – | –
25 | CC(C)OC(=O)c1ccc2[nH]c(O)c(C(=Nc3ccc(N(C)C(=O)CN4CCN(C)CC4)cc3)c3ccccc3)c2c1 | – | – | – | 0.16 µM | 0.715 µM | – | 1.28 µM | 2.68 µM | –
26 | Clc1ccc2nc(Oc3ccccc3)cnc2c1 | – | – | – | > 100 µM | > 100 µM | – | > 100 µM | > 100 µM | –
27 | CCOC(=O)c1cnn(-c2ccnc3c(C(F)(F)F)cccc23)c1N | – | – | – | > 100 µM | > 100 µM | – | 70.7 µM | > 100 µM | –
28 | C[C@H](CSC(=O)c1ccccc1)C(=O)N1c2ccccc2C[C@H]1C(=O)O | – | – | – | – | > 100 µM | – | – | > 100 µM | TGI (MDA-N): > 100 µM
29 | NCc1ccc(-n2c(-c3nonc3N)nc3cnccc32)cc1 | – | – | – | > 25 µM | > 25 µM | – | 0.964 µM | > 25 µM | –
30 | CC1=NN(C(=O)c2ccc(Cl)cc2)C(=O)/C1=C/c1cccc([N+](=O)[O-])c1 | > 100 µM | > 100 µM | > 100 µM | – | – | – | – | – | –
31 | CN(C)c1ccc(C(N)=O)cn1 | – | – | – | – | > 100 µM | – | – | > 100 µM | TGI (MDA-N): > 100 µM
32 | Fc1ccc(Nc2nc(NCCNc3ccnc4cc(Cl)ccc34)nc(N3CCOCC3)n2)cc1 | – | – | – | 3.05 µM | 11.1 µM | – | 8.67 µM | 22 µM | –
33 | O=C1c2ccccc2C(=O)C1C(c1ccc([N+](=O)[O-])cc1)C1C(=O)c2ccccc2C1=O | – | – | > 100 µM | – | – | > 100 µM | – | – | TGI (RXF-631 renal): 29.7 µM; TGI (HOP-18 NSCLC): > 100 µM
34 | CCO[C@@H]1C2C=CC(C2)[C@H]1[N+](=O)[O-] (stereo not given in full) | > 100 µM | > 100 µM | > 100 µM | – | – | > 100 µM | – | – | TGI (HOP-18 NSCLC): > 100 µM
